Consider eight compounds from patent US10683260B2, “Crystalline form of sacubitril sodium salt” (NORATECH PHARMACEUTICALS, INC., priority 2016, dated 2020).

Data set [1] can be described thus: Determination of the hygroscopicity (water absorption in artificial climate chamber). It counts as physicochemical. The settings on record: for Water absorption, %: open weighing bottle, 25±1° C., relative humidity 43.5±2%; for water content: open container, 25° C., relative humidity 43.5%, 3 hours. As to the method: 1. Take a dry stuffed glass weighing bottle (outer diameter 50 mm, height 15 mm) in the artificial climate chamber (set temperature is 25±1° C., relative humidity is 43.5±2%) and weight it (m1).
2. Take the appropriate amount of the crystalline form in the present invention, and place it in the abovementioned weighing bottle and lay it inside the weighing bottle. The thickness of the test sample is generally about 1 mm. Weight the sample (m2).
3. Uncover the weighing bottle and place it with the bottle cap under constant temperature and humidity (set temperature is 25±1° C., relative humidity is 43.5±2%).
4. Put the cap back on the weighing bottle before weighing, and then weight it (m3). The water absorption percentage for each time point is calculated by the formula=(m3−m2)/(m2−m1)×100%.

The conditions of data set [2]: free acid; background statement; cited from earlier work.
The next data set deals with T1, AT1 receptor (Homo sapiens, UniProt P30556).
T1 sequence (P30556 1-359): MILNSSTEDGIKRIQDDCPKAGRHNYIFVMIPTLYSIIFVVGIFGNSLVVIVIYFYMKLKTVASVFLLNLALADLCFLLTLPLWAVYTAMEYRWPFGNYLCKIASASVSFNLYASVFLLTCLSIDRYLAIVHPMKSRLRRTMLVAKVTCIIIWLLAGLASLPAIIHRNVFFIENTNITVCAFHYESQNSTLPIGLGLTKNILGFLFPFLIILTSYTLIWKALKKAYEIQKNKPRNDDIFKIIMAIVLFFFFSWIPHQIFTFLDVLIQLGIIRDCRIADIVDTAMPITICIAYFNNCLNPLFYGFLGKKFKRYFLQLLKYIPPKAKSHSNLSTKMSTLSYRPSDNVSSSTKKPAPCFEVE
The settings on record: AT1 versus AT2 receptor; background statement; cited from earlier work.

With `CCOC(=O)[C@H](C)C[C@@H](Cc1ccc(-c2ccccc2)cc1)NC(=O)CCC(=O)[O-].[Na+]` [A], the “Water absorption, %” value stood at 0.6% in data set [1] (1.5 h) and 1.4% in data set [1] (3 h). Further, in data set [1] (listed as crystalline form A), the water content amounted to 1.4%.

Regarding `CCOC(=O)[C@H](C)C[C@@H](Cc1ccc(-c2ccccc2)cc1)NC(=O)CCC(=O)[O-].[Na+]` [B], the “Water absorption, %” value in data set [1] (1.5 h) amounted to 0.5%; in data set [1] (3 h), 1.0%.

In the case of `CCOC(=O)[C@H](C)C[C@@H](Cc1ccc(-c2ccccc2)cc1)NC(=O)CCC(=O)[O-].[Na+]` [C], the figures for the “Water absorption, %” value in data set [1] (1.5 h) and in data set [1] (3 h) were 1.2% and 2.4%, respectively. The water content in data set [1] (listed as crystalline form C) is 2.4%.

As to `CCOC(=O)[C@H](C)C[C@@H](Cc1ccc(-c2ccccc2)cc1)NC(=O)CCC(=O)[O-].[Na+]` [D], the figures for the “Water absorption, %” value in data set [1] (1.5 h) and in data set [1] (3 h) were 1.5% and 3.2%, respectively.

For `CCOC(=O)[C@H](C)C[C@@H](Cc1ccc(-c2ccccc2)cc1)NC(=O)CCC(=O)[O-].[Na+]` [E], the “Water absorption, %” value in data set [1] (1.5 h) stood at 2.4%; in data set [1] (3 h), 4.3%.

Consider `CCOC(=O)[C@H](C)C[C@@H](Cc1ccc(-c2ccccc2)cc1)NC(=O)CCC(=O)[O-].[Na+]` [sacubitril sodium salt X, reference compound], for which the results for the “Water absorption, %” value in data set [1] (1.5 h) and in data set [1] (3 h) were 8.3% and 11.0%, respectively. The “hygroscopicity (in words)” value in data set [1] (solid form, no conditions stated) is given as “great hygroscopicity”.

As for `CCOC(=O)[C@H](C)C[C@@H](Cc1ccc(-c2ccccc2)cc1)NC(=O)CCC(=O)O` [sacubitril, 4-{[(2S,4R)-1-([1,1′-biphenyl]-4-yl)-5-ethoxy-4-methyl-5-oxopentan-2-yl]amino}-4-oxobutanoic acid], the “water solubility (in words)” value in data set [2] is recorded as “poor water solubility”.

In the case of AngII, at AT1 receptor, the “affinity for the AT1 receptor relative to the AT2 receptor” value is on record as 300 times.
